pEC50, pIC50: −log10 of the molar value. Where a SMILES comes first, the peptide text is derived from it. Where no end group is shown, it is not given here. [ ]: non-standard residue; d: D form.
These compounds were tested against T1, ComD receptor (Streptococcus constellatus, UniProt O33616) (assay: not given). Settings: not given.
Format: cell-based

Work on ASRIRMGFDFSKLFGK [CSP D1A] yielded a pIC50 of 6.92.

The compounds below were run against T1, ComD receptor (assay: Luciferase reporter activation). Settings: not given.
Format: cell-based

First: CC[C@H](C)[C@H](NC(=O)[C@H](CCCNC(=N)N)NC(=O)[C@H](CO)NC(=O)[C@H](N)CC(=O)O)C(=O)N[C@@H](CCCNC(=N)N)C(=O)N[C@@H](CCSC)C(=O)NCC(=O)N[C@@H](Cc1ccccc1)C(=O)N[C@@H](CC(=O)O)C(=O)N[C@@H](Cc1ccccc1)C(=O)N[C@@H](CO)C(=O)N[C@@H](CCCCN)C(=O)N[C@@H](CC(C)C)C(=O)N[C@@H](Cc1ccccc1)C(=O)NCC(=O)N[C@@H](CCCCN)C(=O)O [CSP-d1] (H-[dD]SRIRMGFDFSKLFGK-OH)
Second: CC[C@H](C)[C@H](NC(=O)[C@H](CCCNC(=N)N)NC(=O)[C@H](CO)NC(=O)[C@@H](N)CC(=O)O)C(=O)N[C@@H](CCCNC(=N)N)C(=O)N[C@@H](CCSC)C(=O)NCC(=O)N[C@@H](Cc1ccccc1)C(=O)N[C@@H](CC(=O)O)C(=O)N[C@@H](Cc1ccccc1)C(=O)N[C@@H](CO)C(=O)N[C@@H](CCCCN)C(=O)N[C@@H](CC(C)C)C(=O)N[C@H](Cc1ccccc1)C(=O)NCC(=O)N[C@@H](CCCCN)C(=O)O [CSP-f14] (H-DSRIRMGFDFSKL[dF]GK-OH)
The pEC50 of the first is 0.69 log units lower: 8.01 for the first, 8.70 for the second.

Going from CC[C@@H](C)[C@@H](NC(=O)[C@H](CCCNC(=N)N)NC(=O)[C@H](CO)NC(=O)[C@@H](N)CC(=O)O)C(=O)N[C@@H](CCCNC(=N)N)C(=O)N[C@@H](CCSC)C(=O)NCC(=O)N[C@@H](Cc1ccccc1)C(=O)N[C@@H](CC(=O)O)C(=O)N[C@@H](Cc1ccccc1)C(=O)N[C@@H](CO)C(=O)N[C@@H](CCCCN)C(=O)N[C@@H](CC(C)C)C(=O)N[C@@H](Cc1ccccc1)C(=O)NCC(=O)N[C@@H](CCCCN)C(=O)O [CSP-i4] (H-DSR[dI]RMGFDFSKLFGK-OH) to CC[C@H](C)[C@H](NC(=O)[C@H](CCCNC(=N)N)NC(=O)[C@H](CO)NC(=O)[C@@H](N)CC(=O)O)C(=O)N[C@@H](CCCNC(=N)N)C(=O)N[C@@H](CCSC)C(=O)NCC(=O)N[C@@H](Cc1ccccc1)C(=O)N[C@@H](CC(=O)O)C(=O)N[C@@H](Cc1ccccc1)C(=O)N[C@@H](CO)C(=O)N[C@H](CCCCN)C(=O)N[C@@H](CC(C)C)C(=O)N[C@@H](Cc1ccccc1)C(=O)NCC(=O)N[C@@H](CCCCN)C(=O)O [CSP-k12] (H-DSRIRMGFDFS[dK]LFGK-OH), the pEC50 rises from 7.60 to 8.43 (0.83 log units).

First: CC[C@H](C)[C@H](NC(=O)[C@H](CCCNC(=N)N)NC(=O)[C@H](CO)NC(=O)[C@@H](N)CC(=O)O)C(=O)N[C@@H](CCCNC(=N)N)C(=O)N[C@@H](CCSC)C(=O)NCC(=O)N[C@@H](Cc1ccccc1)C(=O)N[C@@H](CC(=O)O)C(=O)N[C@@H](Cc1ccccc1)C(=O)N[C@@H](CO)C(=O)N[C@@H](CCCCN)C(=O)N[C@@H](CC(C)C)C(=O)N[C@@H](Cc1ccccc1)C(=O)NCC(=O)N[C@H](CCCCN)C(=O)O [CSP-k16] (H-DSRIRMGFDFSKLFG[dK]-OH)
Second: CC[C@H](C)[C@H](NC(=O)[C@H](CCCNC(=N)N)NC(=O)[C@H](CO)NC(=O)[C@@H](N)CC(=O)O)C(=O)N[C@@H](CCCNC(=N)N)C(=O)N[C@@H](CCSC)C(=O)NCC(=O)N[C@@H](Cc1ccccc1)C(=O)N[C@@H](CC(=O)O)C(=O)N[C@@H](Cc1ccccc1)C(=O)N[C@@H](CO)C(=O)N[C@@H](CCCCN)C(=O)N[C@H](CC(C)C)C(=O)N[C@@H](Cc1ccccc1)C(=O)NCC(=O)N[C@@H](CCCCN)C(=O)O [CSP-l13] (H-DSRIRMGFDFSK[dL]FGK-OH)
The pEC50 of the first is 1.17 log units higher: 8.77 for the first, 7.60 for the second. The first is the more potent here.

Going from CC[C@H](C)[C@H](NC(=O)[C@H](CCCNC(=N)N)NC(=O)[C@H](CO)NC(=O)[C@@H](N)CC(=O)O)C(=O)N[C@@H](CCCNC(=N)N)C(=O)N[C@H](CCSC)C(=O)NCC(=O)N[C@@H](Cc1ccccc1)C(=O)N[C@@H](CC(=O)O)C(=O)N[C@@H](Cc1ccccc1)C(=O)N[C@@H](CO)C(=O)N[C@@H](CCCCN)C(=O)N[C@@H](CC(C)C)C(=O)N[C@@H](Cc1ccccc1)C(=O)NCC(=O)N[C@@H](CCCCN)C(=O)O [CSP-m6] (H-DSRIR[dM]GFDFSKLFGK-OH) to CC[C@H](C)[C@H](NC(=O)[C@@H](CCCNC(=N)N)NC(=O)[C@H](CO)NC(=O)[C@@H](N)CC(=O)O)C(=O)N[C@@H](CCCNC(=N)N)C(=O)N[C@@H](CCSC)C(=O)NCC(=O)N[C@@H](Cc1ccccc1)C(=O)N[C@@H](CC(=O)O)C(=O)N[C@@H](Cc1ccccc1)C(=O)N[C@@H](CO)C(=O)N[C@@H](CCCCN)C(=O)N[C@@H](CC(C)C)C(=O)N[C@@H](Cc1ccccc1)C(=O)NCC(=O)N[C@@H](CCCCN)C(=O)O [CSP-r3] (H-DS[dR]IRMGFDFSKLFGK-OH), the pEC50 rises from 7.46 to 7.89 (0.43 log units).

Compared with CC[C@H](C)[C@H](NC(=O)[C@H](CCCNC(=N)N)NC(=O)[C@H](CO)NC(=O)[C@@H](N)CC(=O)O)C(=O)N[C@H](CCCNC(=N)N)C(=O)N[C@@H](CCSC)C(=O)NCC(=O)N[C@@H](Cc1ccccc1)C(=O)N[C@@H](CC(=O)O)C(=O)N[C@@H](Cc1ccccc1)C(=O)N[C@@H](CO)C(=O)N[C@@H](CCCCN)C(=O)N[C@@H](CC(C)C)C(=O)N[C@@H](Cc1ccccc1)C(=O)NCC(=O)N[C@@H](CCCCN)C(=O)O [CSP-r5] (H-DSRI[dR]MGFDFSKLFGK-OH), CC[C@H](C)[C@H](NC(=O)[C@H](CCCNC(=N)N)NC(=O)[C@@H](CO)NC(=O)[C@@H](N)CC(=O)O)C(=O)N[C@@H](CCCNC(=N)N)C(=O)N[C@@H](CCSC)C(=O)NCC(=O)N[C@@H](Cc1ccccc1)C(=O)N[C@@H](CC(=O)O)C(=O)N[C@@H](Cc1ccccc1)C(=O)N[C@@H](CO)C(=O)N[C@@H](CCCCN)C(=O)N[C@@H](CC(C)C)C(=O)N[C@@H](Cc1ccccc1)C(=O)NCC(=O)N[C@@H](CCCCN)C(=O)O [CSP-s2] (H-D[dS]RIRMGFDFSKLFGK-OH) is 0.77 log units higher in pEC50: 7.33 for the first, 8.10 for the second.

Going from DARIRMGFDFSKLFGK [CSP S2A] to DSRARMGFDFSKLFGK [CSP I4A], the pEC50 rises from 8.25 to 10.05 (1.80 log units). The second is the more potent here.

Going from DSRIAMGFDFSKLFGK [CSP R5A] to DSRIRAGFDFSKLFGK [CSP M6A], the pEC50 rises from 8.32 to 8.72 (0.40 log units).

First: DSRIRMGFDFSKLFGA [CSP K16A]
Second: DSRIRMGFDFSKLFGK [Native CSP, reference compound]
The pEC50 of the first is 0.32 log units higher: 8.60 for the first, 8.28 for the second. The first is the more potent here.

Same assay, conditions: ΔcomC PcomX::luc reporter, agonism screening

With DSAIRMGFDFSKLFGK [CSP R3A] the “QS activation (result in words)” value was “complete loss of function”.
With DSRIRMGFDFSKLAGK [CSP F14A] the “QS activation (result in words)” value was “abolished QS activation”.
